Experimental data: patent US9999616B2 (ZENITH EPIGENETICS LTD., priority 2013, dated 2018)
pIC50: −log10 of the molar value.

What was measured:
[1] = test system: c-myc in Human AML MV4-11 cells; assay: Inhibition of cMYC expression (mRNA, real-time PCR) in MV4-11 cells; format: cell-based; settings: 3 h treatment, cMYC mRNA by real-time PCR
Procedure, shortened: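 MV4-11 cells in IMDM with 10% FBS were treated with increasing compound concentrations (DMSO 0.1%) for 3 h at 37 °C, in triplicate. Isolated mRNA was quantified by one-step TaqMan RT-qPCR, cMYC Ct normalized to cyclophilin, and fold expression given relative to DMSO control.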

Human AML MV-4-11 cells = assay: Inhibition of cell proliferation in MV4-11 cells (CellTiter Aqueous One); format: cell-based; settings: for pIC50: MV4-11, 72 h
Procedure, shortened: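 MV4-11 cells, 5×10^4 per well in IMDM with 10% FBS, were exposed to increasing compound concentrations or 0.1% DMSO for 72 h at 37 °C in triplicate. Viability was read by MTS (CellTiter Aqueous One) absorbance at 490 nm after 3-4 h. IC50 was derived from background-corrected signal relative to DMSO.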

hIL-6 mRNA = assay: Inhibition of hIL-6 mRNA transcription in LPS-stimulated U937 macrophages; format: cell-based, Human; settings: Homo sapiens, U-937, PMA-differentiated U937 cells, 1 h pretreatment, LPS 3 h, read-out: IL-6 activity
Procedure, shortened: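 PMA-differentiated U937 macrophages (60 ng/mL PMA, 3 days) pretreated 1 h with compound in 0.1% DMSO, then stimulated with 1 ug/mL E. coli LPS for 3 h at 37° C. IL-6 mRNA quantified by one-step TaqMan qRT-PCR, normalized to cyclophilin; fold expression relative to control, triplicate wells.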

hIL-17 mRNA = assay: Inhibition of hIL-17 mRNA transcription in OKT3-stimulated peripheral blood mononuclear cells; format: cell-based; settings: human PBMC, OKT3 stimulation 6 h, read-out: IL-17 Activity
Procedure: Human peripheral blood mononuclear cells were plated (2.0×10^5 cells per well) in a 96-well plate in 45 μL OpTimizer T Cell expansion media (Life Technologies) containing 20 ng/ml IL-2 and penicillin/streptomycin. The cells were treated with increasing concentrations of the test compound or DMSO (0.1%), and incubated at 37° C., 5% CO2 for 1 h before addition of 10× stock OKT3 antibody at 10 ug/ml in media. Triplicate wells were used for each concentration. Cells were incubated at 37° C., 5% CO2 for 6 h before the cells were harvested. At time of harvest, cells were pelleted by centrifugation at 800 rpm for 5 min. Cells were harvested using the mRNA Catcher PLUS kit according to manufacturer's instructions. The eluted mRNA was then used in a one-step quantitative real-time PCR reaction, using components of the RNA UltraSense™ One-Step Kit (Life Technologies) together with Applied Biosystems TaqMan® primer-probes for hIL-17 and Cyclophilin. Real-time PCR plates were run on a ViiA™7 real time PCR machine (Applied Biosystems), data was analyzed, normalizing the Ct values for hIL-17 to an internal control, prior to determining the fold induction of each unknown sample, relative to the control.

[2] = molecular target: Brd4 bromodomain 1 (BRD4(1)) (Homo sapiens, UniProt O60885); assay: Inhibition of tetra-acetylated histone H4 binding to Brd4 bromodomain 1, measured by FRET (HTRF); parameters: made in house; host or cells: E. coli BL21(DE3); settings: 2 h at room temperature
Procedure, shortened: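 N-terminally His-tagged bromodomain (200 nM), expressed in E. coli and purified by Ni affinity and size exclusion, was incubated with biotinylated tetra-acetylated H4 peptide (25-50 nM), Eu-cryptate streptavidin and XL665 anti-His in HEPES pH 7.4 buffer with 0.2% DMSO. Reactions ran 2 h at room temperature. IC50 came from the 665/620 nm fluorescence decrease.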

Row | SMILES | pIC50 [1] | pIC50 (Human AML MV-4-11 cells) | pIC50 (hIL-6 mRNA) | pIC50 (hIL-17 mRNA) | pIC50 [2] | Cell Proliferation activity (Human AML MV-4-11 cells; 72 h)
1 | Cc1noc(C)c1-c1cc(Nc2ccccc2)c2nc[nH]c2c1 [Example Compound 7, 6-(3,5-dimethylisoxazol-4-yl)-N-phenyl-1H-benzo[d] imidazol-4-amine] | 5.52 to 6.52 | 5.52 to 6.52 | ≥ 6.52 | 5.52 to 6.52 | ≥ 6.52 | 
2 | Cc1noc(C)c1-c1cc2c(c(-c3c(C)noc3C)c1)OCC(=O)N2 [Example Compound 11, 6,8-bis(3,5-dimethylisoxazol-4-yl)-2H-benzo[b][1,4]oxazin-3(4H)-one] | 5.52 to 6.52 | 5.52 to 6.52 | 5.52 to 6.52 | 5.52 to 6.52 | ≥ 6.52 | 
3 | Cc1noc(C)c1-c1cc2c(c(-c3c(C)noc3C)c1)OCCN2 [Example Compound 13, 6,8-bis(3,5-dimethylisoxazol-4-yl)-3,4-dihydro-2H-benzo[b][1,4]oxazine] | 5.52 to 6.52 | 5.52 to 6.52 | 5.52 to 6.52 | 5.52 to 6.52 | ≥ 6.52 | 
4 | Cc1noc(C)c1-c1cc(-c2ccccc2C(F)(F)F)c2nc[nH]c2c1 [Example Compound 19, 3,5-dimethyl-4-(4-(2-(trifluoromethyl)phenyl)-1H-benzo[d]imidazol-6-yl)isoxazole] | 5.52 to 6.52 | 5.52 to 6.52 | 5.52 to 6.52 | ≥ 6.52 | 5.52 to 6.52 | 
5 | Cc1ccncc1-c1cc(-c2c(C)noc2C)cc2[nH]cnc12 [Example Compound 20, 3,5-dimethyl-4-(4-(4-methylpyridin-3-yl)-1H-benzo[d]imidazol-6-yl)isoxazole] | 5.52 to 6.52 | 5.52 to 6.52 | ≥ 6.52 | 5.52 to 6.52 | ≥ 6.52 | 
6 | Cc1noc(C)c1-c1cc(-c2c(C)noc2C)c2[nH]ncc2c1 [Example Compound 21, 4,4′-(1H-indazole-5,7-diyl)bis(3,5-dimethylisoxazole)] | 5.52 to 6.52 | 5.52 to 6.52 | 5.52 to 6.52 | 5.52 to 6.52 | ≥ 6.52 | 
7 | Cc1noc(C)c1Nc1cc(-c2c(C)noc2C)cc2[nH]cnc12 [Example Compound 42, N-(6-(3,5-dimethyl-isoxazol-4-yl)-1H-benzo[d]imidazol-4-yl)-3,5-dimethyl-isoxazol-4-amine] | ≥ 6.52 | ≥ 6.52 | ≥ 6.52 | 5.52 to 6.52 | ≥ 6.52 | 
8 | Cc1noc(C)c1-c1cc(-c2c(C)noc2C)c2nc(C(C)C)[nH]c2c1 [Example Compound 45, 4,4′-(2-isopropyl-1H-benzo[d]imidazole-4,6-diyl)bis(3,5-dimethylisoxazole)] | 5.52 to 6.52 | 5.52 to 6.52 |  | 5.52 to 6.52 | ≥ 6.52 | 
9 | COc1ncccc1-c1cc(-c2c(C)noc2C)cc2[nH]cnc12 [Example Compound 48, 4-(4-(2-methoxy-pyridin-3-yl)-1H-benzo[d]imidazol-6-yl)-3,5-dimethyl isoxazole] | 5.52 to 6.52 | 5.52 to 6.52 |  | 5.52 to 6.52 | ≥ 6.52 | 
10 | Cc1nc2c(-c3cnccc3C(F)(F)F)cc(-c3c(C)noc3C)cc2[nH]1 [Example Compound 50, 3,5-dimethyl-4-(2-methyl-4-(4-(trifluoro-methyl)pyridin-3-yl)-1H-benzo[d]imidazol-6-yl)isoxazole] | 5.52 to 6.52 | ≥ 6.52 | ≥ 6.52 | 5.52 to 6.52 | ≥ 6.52 | 
11 | Cc1nc2c(-c3cc(C#N)ccc3C)cc(-c3c(C)noc3C)cc2[nH]1 [Example Compound 58, 3-(6-(3,5-dimethyl-isoxazol-4-yl)-2-methyl-1H-benzo[d]imidazol-4-yl)-4-methyl-benzonitrile] |  | ≥ 6.52 | ≥ 6.52 | 5.52 to 6.52 | ≥ 6.52 | 
12 | Cc1nc2c(-c3cccnc3C(F)(F)F)cc(-c3c(C)noc3C)cc2[nH]1 [Example Compound 59, 3,5-dimethyl-4-(2-methyl-4-(2-(trifluoro-methyl)pyridin-3-yl)-1H-benzo[d]imidazol-6-yl)isoxazole] |  | ≥ 6.52 | ≥ 6.52 | 5.52 to 6.52 | ≥ 6.52 | 
13 | Cc1nc2c(-c3c(C(F)(F)F)nn(C)c3C)cc(-c3c(C)noc3C)cc2[nH]1 [Example Compound 66, 4-(4-(1,5-dimethyl-3-(trifluoro-methyl)-1H-pyrazol-4-yl)-2-methyl-1H-benzo[d]imidazol-6-yl)-3,5-dimethyl-isoxazole] | 5.52 to 6.52 | ≥ 6.52 | ≥ 6.52 | ≥ 6.52 | ≥ 6.52 | 
14 | Cc1nc2c(-c3ccc(N)nc3C)cc(-c3c(C)noc3C)cc2[nH]1 [Example Compound 68, 5-(6-(3,5-dimethyl-isoxazol-4-yl)-2-methyl-1H-benzo[d]imidazol-4-yl)-6-methyl-pyridin-2-amine] | ≥ 6.52 | ≥ 6.52 | ≥ 6.52 | ≥ 6.52 | ≥ 6.52 | 
15 | Cc1noc(C)c1-c1cc(-c2cccc(C(N)=O)c2C)c2nc[nH]c2c1 [Example Compound 73, 3-(6-(3,5 dimethyl-isoxazol-4-yl)-1H-benzo[d]imidazol-4-yl)-2-methyl-benzamide] | ≥ 6.52 | ≥ 6.52 | ≥ 6.52 | 5.52 to 6.52 | ≥ 6.52 | 
16 | CCOc1nc2c(-c3cccnc3C)cc(-c3c(C)noc3C)cc2[nH]1 [Example Compound 81, 4-(2-ethoxy-4-(2-methylpyridin-3-yl)-1H-benzo[d]imidazol-6-yl)-3,5-dimethyl isoxazole] | ≥ 6.52 | ≥ 6.52 | 5.52 to 6.52 | ≥ 6.52 | ≥ 6.52 | 
17 | Cc1nc2c(-c3cc(F)ccc3C)cc(-c3c(C)noc3C)cc2[nH]1 [Example Compound 92, 4-(4-(5-fluoro-2-methyl-phenyl)-2-methyl-1H-benzo[d]imidazol-6-yl)-3,5-dimethyl isoxazole] | 5.52 to 6.52 | 5.52 to 6.52 | ≥ 6.52 | 5.52 to 6.52 | ≥ 6.52 | 
18 | Cc1noc(C)c1-c1cc(-c2c(C)noc2C)c2nc(N3CCOCC3)[nH]c2c1 [Example Compound 226, 4-(4,6-bis(3,5-dimethylisoxazol-4-yl)-1H-benzo[d]imidazol-2-yl)morpholine] | ≥ 6.52 | ≥ 6.52 | ≥ 6.52 |  | ≥ 6.52 | 
19 | COc1c(-c2c(C)noc2C)cc2[nH]c(C)nc2c1-c1c(C)noc1C [Example Compound 227, 4,4′-(5-methoxy-2-methyl-1H-benzo[d]imidazole-4,6-diyl)bis(3,5-dimethylisoxazole)] | 5.52 to 6.52 | 4.52 to 5.52 | 5.52 to 6.52 |  | 5.52 to 6.52 | 
20 | Cc1noc(C)c1-c1cc(-c2c(C)noc2C)c2nc(C3CCOCC3)[nH]c2c1 [Example Compound 228, 4,4′-(2-(tetrahydro-2H-pyran-4-yl)-1H-benzo[d]imidazole-4,6-dyl)bis(3,5-dimethylisoxazole)] | 5.52 to 6.52 | 5.52 to 6.52 | 5.52 to 6.52 |  | ≥ 6.52 | 
21 | Cc1noc(C)c1-c1cc(-c2c(C)noc2C)c2nc(NC3CCOCC3)[nH]c2c1 [Example Compound 229, 4,6-bis(3,5-dimethyl-isoxazol-4-yl)-N-(tetrahydro-2H-pyran-4-yl)-1H-benzo[d] imidazol-2-amine] | ≥ 6.52 | 5.52 to 6.52 | ≥ 6.52 |  | ≥ 6.52 | 
22 | Cc1noc(C)c1-c1cc(-c2ccnn2C)cc2[nH]cnc12 [Example Compound 230, 3,5-dimethyl-4-(6-(1-methyl-1H-pyrazol-5-yl)-1H-benzo[d]imidazol-4-yl)isoxazole] | 5.52 to 6.52 |  | 4.52 to 5.52 |  | 5.52 to 6.52 | Not active
23 | Cc1noc(C)c1-c1cc(-c2c(C)noc2C)c2nc(N3CCN(C)CC3)[nH]c2c1 [Example Compound 231, 4,4′-(2-(4-methyl-piperazin-1-yl)-1H-benzo[d]imidazole-4,6-diyl) bis(3,5-dimethylisoxazole)] | ≥ 6.52 | ≥ 6.52 | ≥ 6.52 |  | ≥ 6.52 | 
